According to ChEMBL document CHEMBL4422681, “Comprehensive kinetic and substrate specificity analysis of an arylsulfatase from Helix pomatia using mass spectrometry” (Bioorg Med Chem, 2019):
Where a name gives a salt, the structure may show the parent alone.

Assays:
[1] = Substrate activity at Helix pomatia arylsulfatase assessed as enzyme-mediated compound hydrolysis by measuring Vmax by UPLC-MS/MS analysis; type: ADME
arylsulfatase [2] = test: Substrate activity at Helix pomatia arylsulfatase assessed as enzyme-mediated compound hydrolysis using 5 U of enzyme measured after 30 mins by UPLC-MS/MS analysis; type: ADME; conditions: Helix pomatia arylsulfatase (isolated enzyme), read-out: Drug metabolism
arylsulfatase [3] = test: Substrate activity at Helix pomatia arylsulfatase assessed as enzyme-mediated compound hydrolysis using 1 U of enzyme measured after 30 mins by UPLC-MS/MS analysis; type: ADME; conditions: Helix pomatia arylsulfatase (isolated enzyme), read-out: Drug metabolism
arylsulfatase [4] = test: Substrate activity at Helix pomatia arylsulfatase assessed as enzyme-mediated compound hydrolysis by measuring Km by UPLC-MS/MS analysis; type: ADME; conditions: Helix pomatia arylsulfatase (isolated enzyme)
[5] = Drug metabolism in pH 7 ammonium acetate buffer assessed as 7-hydroxy-4-methyl-2H-chromen-2-one formation
[6] = Stability of the compound in pH 7 ammonium acetate buffer by UPLC-MS/MS analysis; type: physicochemical
arylsulfatase [7] = test: Substrate activity at Helix pomatia arylsulfatase assessed as enzyme-mediated compound hydrolysis by measuring parent compound remaining using 0.1 U of enzyme measured after 30 mins by UPLC-MS/MS analysis; type: ADME; conditions: Helix pomatia arylsulfatase (isolated enzyme), read-out: Stability
[8] = Substrate activity at Helix pomatia arylsulfatase assessed as enzyme-mediated compound hydrolysis by measuring catalytic efficiency by UPLC-MS/MS analysis; type: ADME
arylsulfatase [9] = test: Substrate activity at Helix pomatia arylsulfatase assessed as enzyme-mediated compound hydrolysis using 1 U of enzyme measured after 24 hrs by UPLC-MS/MS analysis; type: ADME; conditions: Helix pomatia arylsulfatase (isolated enzyme), read-out: Drug metabolism

Structure (SMILES)	Vmax [1] [µM/s]	metabolised at 0.5 h (arylsulfatase [2]) [%]	metabolised at 0.5 h (arylsulfatase [3]) [%]	Km (arylsulfatase [4]) [µM]	Drug metabolism [5]	Stability [6]	remaining at 0.5 h (arylsulfatase [7]) [%]	Activity [8] [s⁻¹ µM⁻¹]	metabolised at 24 h (arylsulfatase [9]) [%]
Cc1cc(=O)oc2cc(OS(=O)(=O)O)ccc12	2.66	100	100	175	Metabolite detected	Stable	3	–	–
CC(=O)NCCc1ccc(OS(=O)(=O)O)cc1	0.17	–	–	1490	–	Stable	–	1210	100
O=S(=O)(O)Oc1c[nH]c2ccccc12 [INDOXYL SULFATE]	0.02	–	–	216	–	Stable	–	1060	100
O=C(O)/C=C/c1ccc(OS(=O)(=O)O)cc1	0.02	–	–	262	–	Stable	–	898	100
O=[N+]([O-])c1ccc(OS(=O)(=O)O)cc1	–	–	100	–	–	Stable	–	–	–
O=S(=O)(O)Oc1cccc(O)c1	0.01	–	–	131	–	Stable	–	696	100
C[C@]12CC[C@@H]3c4ccc(OS(=O)(=O)O)cc4CC[C@H]3[C@@H]1CCC2=O [ESTRONE SULFURIC ACID]	3.8	–	100	351	–	Stable	–	–	–
Cc1c[nH]c2ccc(OS(=O)(=O)O)cc12	–	–	–	–	–	Stable	–	–	100
Cc1ccc(OS(=O)(=O)O)cc1	0.08	–	–	1400	–	Stable	–	623	100
COc1cc(C(=O)O)ccc1OS(=O)(=O)O	0.01	–	–	341	–	Stable	–	351	100
COc1ccc2c(c1)c(=O)oc1cc(OS(=O)(=O)O)ccc12	8.21	–	100	112	–	Stable	–	–	–
COc1cc(/C=C/C(=O)O)ccc1OS(=O)(=O)O	0.01	–	–	161	–	Stable	–	862	100
C=Cc1ccc(OS(=O)(=O)O)c(OC)c1	–	–	100	–	–	Stable	–	–	–
CCc1ccc(OS(=O)(=O)O)cc1	0.66	–	–	1020	–	Stable	–	7010	100
